In ChEMBL document CHEMBL3885861, “Open TG-GATES”:

Species: Rattus norvegicus
Experiment: Open TG-GATES - Regimen: Single
Type: toxicity, organism-based, Sprague-Dawley
Set-up: regimen Single, gender Male, age 6 weeks
Details: in vivo, po, route gavage; for TC / TP / gamma-GTP / ALP / ALT / AST / BUN / CRE / Ca / Cl / DBIL / GLC / IP / K / LDH / Na / PL / RALB / TBIL: tissue Plasma; for APTT / Bas / Eos / Fbg / Hb / Ht / Lym / MCH / MCHC / MCV / Mono / Neu / PT / Plat / RBC / Ret / WBC: tissue Blood; for KIDNEY_L / KIDNEY_R / KIDNEY_TOTAL: tissue Kidney; for LIVER: tissue Liver
[1] = 15 mg/kg, 24 h, dose level High
[2] = 50 mg/kg, 3 h, dose level Middle
[3] = 50 mg/kg, 6 h, dose level Middle

## O=P1(N(CCCl)CCCl)NCCCO1 (stereo unspecified) [CYCLOPHOSPHAMIDE ANHYDROUS]
15 mg/kg, 3 h, dose level Low
  TC: 68.6 mg/dL
  TP: 5.2 g/dL
  gamma-GTP: 1.2 IU/L
15 mg/kg, 6 h, dose level High
  TERMINAL_BW: 193.9 g
  APTT: 21.7 s
  Bas: 0%
  Eos: 0.6%
  Fbg: 313.4 mg/dL
  Hb: 13.3 g/dL
  Ht: 39.9%
  Lym: 79.4%
  MCH: 21.5 pg
  MCHC: 33.3%
  MCV: 64.8 fL
  Mono: 2.2%
  Neu: 17.4%
  PT: 15.6 s
  Plat: 122.7 x10_4/uL
  RBC: 616.8 x10_4/ul
  Ret: 9%
  WBC: 68.2 x10_2/uL
  KIDNEY_L: 0.8 g
  KIDNEY_R: 0.9 g
  KIDNEY_TOTAL: 1.7 g
  LIVER: 8.4 g
  ALP: 1569.4 IU/L
  ALT: 39.2 IU/L
  AST: 74.8 IU/L
  BUN: 10.2 mg/dL
  CRE: 0.1 mg/dL
  Ca: 10.7 mg/dL
  Cl: 106.8 meq/L
  DBIL: 0 mg/dL
  GLC: 185.8 mg/dL
  IP: 10.4 mg/dL
  K: 4.5 meq/L
  LDH: 216.8 IU/L
  Na: 143.2 meq/L
  PL: 144 mg/dL
  RALB: 2.9 g/dL
  TBIL: 0.032 mg/dL
  TC: 81.8 mg/dL
  TP: 5.4 g/dL
  gamma-GTP: 1.2 IU/L
15 mg/kg, 6 h, dose level Low
  TERMINAL_BW: 190.6 g
  APTT: 20.3 s
  Eos: 1.2%
  Fbg: 302 mg/dL
  Hb: 13 g/dL
  Ht: 38.9%
  Lym: 80.6%
  MCH: 20.9 pg
  MCHC: 33.4%
  MCV: 62.4 fL
  Mono: 2.4%
  Neu: 15.8%
  PT: 13.9 s
  Plat: 115.7 x10_4/uL
  RBC: 624 x10_4/ul
  Ret: 8.9%
  WBC: 71.4 x10_2/uL
  KIDNEY_R: 0.8 g
  LIVER: 7.6 g
  ALP: 1365.4 IU/L
  ALT: 33.2 IU/L
  AST: 70.4 IU/L
  BUN: 8.4 mg/dL
  CRE: 0.2 mg/dL
  Ca: 10.9 mg/dL
  Cl: 107 meq/L
  DBIL: 0.014 mg/dL
  GLC: 168.2 mg/dL
  IP: 9 mg/dL
  K: 4.3 meq/L
  LDH: 83.8 IU/L
  Na: 142 meq/L
  PL: 141.6 mg/dL
  RALB: 2.5 g/dL
  TBIL: 0.072 mg/dL
  TC: 79 mg/dL
  TP: 5.3 g/dL
15 mg/kg, 9 h, dose level High
  TERMINAL_BW: 185.5 g
  APTT: 20.7 s
  Bas: 0%
  Eos: 0.8%
  Fbg: 320.4 mg/dL
  Hb: 13.2 g/dL
  Ht: 39.3%
  Lym: 78%
  MCH: 21 pg
  MCHC: 33.6%
  MCV: 62.4 fL
  Mono: 2.2%
  Neu: 19%
  PT: 16.2 s
  Plat: 113.9 x10_4/uL
  RBC: 631 x10_4/ul
  Ret: 7.3%
  WBC: 57.8 x10_2/uL
  KIDNEY_L: 0.8 g
  KIDNEY_R: 0.9 g
  KIDNEY_TOTAL: 1.7 g
  LIVER: 7.5 g
  ALP: 1487.4 IU/L
  ALT: 34.8 IU/L
  AST: 67.4 IU/L
  BUN: 9.2 mg/dL
  CRE: 0.2 mg/dL
  Ca: 10.5 mg/dL
  Cl: 107.4 meq/L
  DBIL: 0.002 mg/dL
  GLC: 186 mg/dL
  IP: 10.1 mg/dL
  K: 3.9 meq/L
  LDH: 185.4 IU/L
  Na: 143.4 meq/L
  PL: 123.8 mg/dL
  RALB: 3 g/dL
  TBIL: 0.032 mg/dL
  TC: 69.2 mg/dL
  TP: 5.4 g/dL
  gamma-GTP: 1 IU/L
15 mg/kg, 9 h, dose level Low
  TERMINAL_BW: 184.1 g
  APTT: 16.7 s
  Eos: 1%
  Fbg: 285.6 mg/dL
  Hb: 12.7 g/dL
  Ht: 37.6%
  Lym: 75%
  MCH: 20.8 pg
  MCHC: 33.7%
  MCV: 61.8 fL
  Neu: 21.4%
  PT: 14 s
  Plat: 120.4 x10_4/uL
  RBC: 608.4 x10_4/ul
  Ret: 8.8%
  WBC: 67.8 x10_2/uL
  KIDNEY_R: 0.8 g
  KIDNEY_TOTAL: 1.6 g
  LIVER: 6.9 g
  ALP: 1388.6 IU/L
  ALT: 31.2 IU/L
  AST: 67.6 IU/L
  BUN: 8.2 mg/dL
  Ca: 10.6 mg/dL
  Cl: 106.6 meq/L
  DBIL: 0.012 mg/dL
  GLC: 163.8 mg/dL
  IP: 10.3 mg/dL
  K: 4.4 meq/L
  LDH: 55.2 IU/L
  Na: 142.2 meq/L
  PL: 135.8 mg/dL
  RALB: 2.5 g/dL
  TBIL: 0.058 mg/dL
  TC: 77.4 mg/dL
  TP: 5.2 g/dL
  gamma-GTP: 1.2 IU/L
[1]
  TERMINAL_BW: 195.1 g
  APTT: 21.5 s
  Bas: 0%
  Eos: 0.8%
  Fbg: 304 mg/dL
  Hb: 13.6 g/dL
  Ht: 40.8%
  Lym: 88.2%
  MCH: 21.2 pg
  MCHC: 33.4%
  MCV: 63.5 fL
  Mono: 2.4%
  Neu: 8%
  PT: 16.2 s
  Plat: 117.1 x10_4/uL
  RBC: 643 x10_4/ul
  Ret: 5.3%
  WBC: 44.1 x10_2/uL
  KIDNEY_L: 0.9 g
  KIDNEY_R: 0.9 g
  KIDNEY_TOTAL: 1.8 g
  LIVER: 8.6 g
  ALP: 1751 IU/L
  ALT: 45 IU/L
  AST: 71 IU/L
  BUN: 14.6 mg/dL
  CRE: 0.2 mg/dL
  Ca: 10.8 mg/dL
  Cl: 104.8 meq/L
  DBIL: 0.006 mg/dL
  GLC: 179 mg/dL
  IP: 8.4 mg/dL
  K: 4.3 meq/L
  LDH: 195.4 IU/L
  Na: 142.4 meq/L
  PL: 143.6 mg/dL
  RALB: 3.1 g/dL
  TBIL: 0.02 mg/dL
  TC: 75 mg/dL
  TP: 5.5 g/dL
  gamma-GTP: 1.2 IU/L
15 mg/kg, 24 h, dose level Low
  TERMINAL_BW: 205.2 g
  APTT: 17.5 s
  Fbg: 286.4 mg/dL
  Hb: 12.9 g/dL
  Ht: 38.1%
  Lym: 85.4%
  MCH: 20.7 pg
  MCHC: 34%
  MCV: 60.9 fL
  Mono: 2%
  Neu: 11.2%
  PT: 14.1 s
  Plat: 116.3 x10_4/uL
  RBC: 625.2 x10_4/ul
  Ret: 6.8%
  WBC: 48.9 x10_2/uL
  LIVER: 9.1 g
  ALP: 1404.4 IU/L
  ALT: 40.2 IU/L
  AST: 71.4 IU/L
  BUN: 14.4 mg/dL
  Ca: 11.1 mg/dL
  Cl: 105.2 meq/L
  DBIL: 0.02 mg/dL
  GLC: 176.4 mg/dL
  IP: 8.1 mg/dL
  K: 4.5 meq/L
  LDH: 82 IU/L
  Na: 140.8 meq/L
  PL: 159.4 mg/dL
  RALB: 2.6 g/dL
  TBIL: 0.06 mg/dL
  TC: 87.6 mg/dL
  TP: 5.6 g/dL
  gamma-GTP: 1 IU/L
[2]
  TERMINAL_BW: 190.4 g
  APTT: 20 s
  Bas: 0%
  Eos: 0.8%
  Fbg: 281.6 mg/dL
  Hb: 13 g/dL
  Ht: 38.9%
  Lym: 78%
  MCH: 20.6 pg
  MCHC: 33.4%
  MCV: 61.6 fL
  Mono: 2.6%
  Neu: 17.6%
  PT: 13.8 s
  Plat: 111.1 x10_4/uL
  RBC: 631.6 x10_4/ul
  Ret: 9.2%
  WBC: 101.7 x10_2/uL
  KIDNEY_L: 0.8 g
  KIDNEY_R: 0.8 g
  KIDNEY_TOTAL: 1.6 g
  LIVER: 8.3 g
  ALP: 1500.2 IU/L
  ALT: 35.8 IU/L
  AST: 72.6 IU/L
  BUN: 10 mg/dL
  CRE: 0.2 mg/dL
  Ca: 11.1 mg/dL
  Cl: 104.8 meq/L
  DBIL: 0.018 mg/dL
  GLC: 171.8 mg/dL
  IP: 8.7 mg/dL
  K: 4.4 meq/L
  LDH: 72.6 IU/L
  Na: 140.2 meq/L
  PL: 160.4 mg/dL
  RALB: 2.4 g/dL
  TBIL: 0.068 mg/dL
  TC: 86.6 mg/dL
  TP: 5.3 g/dL
  gamma-GTP: 1.4 IU/L
[3]
  TERMINAL_BW: 187.5 g
  APTT: 17.2 s
  Bas: 0%
  Eos: 0.6%
  Fbg: 278.4 mg/dL
